Data: patent US6790971B1, “19-Nor-steroids” (Aventis Pharma S.A., priority 1989, dated 2004)

Columns and labels:
[1] = biological target: T1, Estrogenic Receptor of Mouse Uterus (Mus musculus, UniProt P19785); experiment: Relative affinity of the bond, estrogen receptor (tritiated estradiol displacement); assay type: binding; settings: for affinity for the estrogen receptors: at the second time (incubation); for Relative affinity of the bond (RAB), Oestrogen, 2 H: incubation 2 H at 0° C.; for Relative affinity of the bond (RAB), Oestrogen, 2 H / Relative affinity of the bond (RAB), Oestrogen, 6 H: RAB=100(CH)/(CX); for Relative affinity of the bond (RAB), Oestrogen, 6 H: incubation 6 H (second time)
T1 construct: their uteri were removed, then homogenized at 0° C; from tissue; host or cells: uterine cytosol (105,000 g supernatant) of immature female mice
T1 sequence (P19785 1-599): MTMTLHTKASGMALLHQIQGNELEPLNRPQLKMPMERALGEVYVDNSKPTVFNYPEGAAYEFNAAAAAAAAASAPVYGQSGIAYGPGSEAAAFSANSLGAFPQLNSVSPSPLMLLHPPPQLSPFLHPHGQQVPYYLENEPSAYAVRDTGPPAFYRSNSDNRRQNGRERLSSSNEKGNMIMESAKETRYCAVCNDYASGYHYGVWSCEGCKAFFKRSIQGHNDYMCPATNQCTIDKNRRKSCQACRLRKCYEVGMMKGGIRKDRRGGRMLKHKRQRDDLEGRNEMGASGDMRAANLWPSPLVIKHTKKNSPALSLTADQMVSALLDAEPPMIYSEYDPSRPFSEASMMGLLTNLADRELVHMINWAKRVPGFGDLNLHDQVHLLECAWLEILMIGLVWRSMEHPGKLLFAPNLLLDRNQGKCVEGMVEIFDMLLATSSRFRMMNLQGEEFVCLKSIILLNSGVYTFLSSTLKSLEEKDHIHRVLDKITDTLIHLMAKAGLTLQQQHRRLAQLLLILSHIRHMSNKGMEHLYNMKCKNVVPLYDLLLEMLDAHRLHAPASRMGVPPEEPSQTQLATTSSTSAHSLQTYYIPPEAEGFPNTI
Procedure: Estrogenic Receptor of Mouse Uterus:
Impuberal female mice aged from 18 to 21 days were killed and their uteri were removed, then homogenized at 0° C. with the aid of a Potter teflon-glass in a TS buffered solution (10 mM Tris, 0.25 M saccharose, HCL pH 7.4) (1 g of tissue for 25 ml of TS). The homogenate was ultracentrifuged (105,000 g×90 min) at 0° C. and aliquots of the supernatant were incubated at 0° C. or at 25° C. for a time (t) with a constant concentration (T) of tritiated estradiol in the presence of increasing concentrations (0-1000×10^−9 M) either of cold estradiol, or of the cold product to be tested. The concentration (B) of bound tritiated estradiol was measured in each incubate by the technique of adsorption on dextran carbon.
(§1) Calculation of the Relative Affinty of the Bond
(§2) The calculation of the Relative Affinity of the Bond (RAB) was identical for all the receptors. The following 2 curves were traced; the percentage of the bound tritiated hormone [formula]
(§3) was a function of the logarithm of the concentration of the cold reference hormone and [formula]
(§4) as a function of the logarithm of the concentration of the cold product tested.
(§5) One determined the straight line of the equation [formula]
(§6) The intersections of the straight line I50 and of the curves make it possible to evaluate the concentrations of the cold reference hormone (CH) and of the tested cold product (CX) which inhibit to an extend of 50% the binding of the tritiated hormone upon the receptor. The relative affinity of the bond (RAB) of the tested product is determined by the equation

[2] = biological target: T2, Glucocorticoid Receptor of Rat Thymus (Rattus norvegicus, UniProt P06536); experiment: Relative affinity of the bond, glucocorticoid receptor (tritiated dexamethasone displacement); assay type: binding; settings: RAB=100(CH)/(CX); for Relative affinity of the bond (RAB), Glucocoticoid, 4 H: incubation 4 H at 0° C.; for Relative affinity of the bond (RAB), Glucocoticoid, 24 H: incubation 24 H at 0° C.
T2 construct: The thymuses were removed and homogenized at 0° C; from tissue; host or cells: thymus cytosol (105,000 g supernatant) of adrenalectomised male Sprague-Dawley rats
T2 sequence (P06536 1-795): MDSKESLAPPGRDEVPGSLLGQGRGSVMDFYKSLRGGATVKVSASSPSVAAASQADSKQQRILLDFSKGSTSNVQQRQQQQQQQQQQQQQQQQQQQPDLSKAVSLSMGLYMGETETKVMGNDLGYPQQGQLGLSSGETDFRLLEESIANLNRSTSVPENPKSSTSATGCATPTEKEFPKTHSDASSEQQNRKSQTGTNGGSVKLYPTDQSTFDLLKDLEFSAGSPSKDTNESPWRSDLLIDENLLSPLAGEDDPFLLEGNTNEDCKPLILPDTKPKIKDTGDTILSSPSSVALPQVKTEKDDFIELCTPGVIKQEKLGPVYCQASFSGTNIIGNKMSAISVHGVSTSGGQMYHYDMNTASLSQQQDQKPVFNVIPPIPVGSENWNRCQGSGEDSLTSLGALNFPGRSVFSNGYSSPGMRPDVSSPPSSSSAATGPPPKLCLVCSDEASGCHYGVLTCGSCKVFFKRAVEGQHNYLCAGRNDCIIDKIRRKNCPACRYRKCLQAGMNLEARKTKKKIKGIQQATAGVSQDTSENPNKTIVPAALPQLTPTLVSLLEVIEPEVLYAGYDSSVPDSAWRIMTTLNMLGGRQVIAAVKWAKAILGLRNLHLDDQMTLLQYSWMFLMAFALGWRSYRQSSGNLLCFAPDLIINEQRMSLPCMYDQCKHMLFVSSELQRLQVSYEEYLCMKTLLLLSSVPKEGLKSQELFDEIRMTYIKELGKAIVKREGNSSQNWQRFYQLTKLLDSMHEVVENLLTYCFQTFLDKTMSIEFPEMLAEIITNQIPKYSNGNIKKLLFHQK
Procedure: Glucocorticoid Receptor of Rat Thymus:
Male Sprague Dawley EOPS rats weighing 160 to 200 g were subjected to suprarenalectomy and 4 to 8 days after this intervention, the animals were killed. The thymuses were removed and homogenized at 0° C. in a 10 mM Tris, 0.25 M saccharose, 2 mM dithiothreitol, HCL pH 7.4 buffer, with the aid of a Potter polytetrafluoroethylene-glass (1 g of tissue for 10 ml of TS). The homogenate was subsequently ultracentrifuged (105,000 g×90 min) at 0° C. and aliquots of the supernatant were incubated at 0° C. for a time (t) with a constant concentration (T) of tritiated dexamethasone in the presence of increasing concentrations (0-2,500.10^−9 M) either of cold dexamethasone, or of cold product to be tested. The concentration (B) of the bound tritiated dexamethasone was measured in each incubate by the adsorption technique on dextran carbon.
as §1, §2, §3, §4, §5, §6

Row | Molecule | affinity for the estrogen receptors [1] | Relative affinity of the bond (RAB), Oestrogen, 2 H [1] | Relative affinity of the bond (RAB), Oestrogen, 6 H [1] | Relative affinity of the bond (RAB), Glucocoticoid, 4 H [2] | Relative affinity of the bond (RAB), Glucocoticoid, 24 H [2]
1 | CC(C)N(C)C(=O)CCCCCCCCCC[C@H]1C[C@]2(C)[C@@H](O)CC[C@H]2[C@@H]2CCc3cc(O)ccc3[C@@H]12 [Example 16, 3,17β-dihydroxy-N-methyl-N-isopropyl-11β-Δ^1,3,5(10)-estratriene undecanamide] | marked affinity | 0.6 | 60 | 12 | 11
2 | CC#C[C@]1(O)CC[C@H]2[C@@H]3CCC4=CC(=O)CCC4=C3[C@@H](CCCCCCCCCCC(=O)NCCCC)C[C@@]21C [Example 22, N-butyl-17β-hydroxy-3-oxo-17α-(1-propynyl)-11β-Δ^4,9-estradiene undecanamide] |  | 0.01 | 0.01 | 7 | 14
3 | CN(Cc1ccccc1)C(=O)CCCCCCCCCC[C@H]1C[C@]2(C)[C@@H](O)CC[C@H]2[C@@H]2CCC3=CC(=O)CCC3=C12 [Example 17, N-benzyl-17β-hydroxy-N-methyl-3-oxo-11β-Δ^4,9-estradiene undecanamide] |  | 0.1 | 0.01 | 3 | 6
4 | CCCCN(C)C(=O)CCCCCCCCCCC[C@H]1C[C@]2(C)[C@@H](O)CC[C@H]2[C@@H]2CCc3cc(O)ccc3[C@@H]12 [Example 24, N-butyl-3,17β-dihydroxy-N-methyl-11β-Δ^1,3,5(10)-estratriene dodecanamide] |  | 0.02 | 13 | 2 | 3
5 | N-butyl-3,17β-dihydroxy-N-methyl-19-nor-11β-Δ^1,3,5(10)-pregnatrien-20-yn undecanamide [Example 21] |  | 0.06 | 7.4 | 2 | 2.6
6 | CN(C)CCN(C)C(=O)CCCCCCCCCC[C@H]1C[C@]2(C)[C@@H](O)CC[C@H]2[C@@H]2CCC3=CC(=O)CCC3=C12 [Example 19, N-[2-(dimethylamino)-ethyl]-17β-hydroxy-N-methyl-3-oxo-11β-Δ^4,9-estradiene undecanamide] |  | 0.3 | 0.8 | 6 | 4.6
7 | CCCCN(C)C(=O)CCCCCCCCCC[C@H]1C[C@]2(C)[C@@H](O)CC[C@H]2[C@@H]2CCc3cc(O)ccc3[C@@H]12 [Example 13, N-Butyl-3,17β-Dihydroxy-N-Methyl-11β-Δ^1,3,5(10)-Estratriene-Undecanamide] | marked affinity | 0.13 | 27 | 7 | 7
